Data from PubChem BioAssay (NCI).
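The compound was tested at five concentrations on cells cultured in 96-well plates, with a 48-hour exposure period. GI50 marks 50% less growth. Definition used: TGI = concentration required for complete inhibition of growth.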

What follows are molecules tested on CAKI-1 renal (assay: NCI tumour cell line growth inhibition, 48 h).

SMILES	GI50	TGI
Nc1c(C(=O)N/N=C/c2ccc(-c3ccc(Cl)cc3)o2)cnn1-c1ccnc2c(C(F)(F)F)cccc12	> 100 µM	> 100 µM
CCCCCc1c(C)[nH]c(/C=C2\N=C(c3ccc[nH]3)C=C2CC)c1C	0.0191 µM	0.214 µM
COc1cc(/C=C2\C(=O)Nc3ccc(F)cc32)cc(OC)c1OC	15.8 µM	> 100 µM
Cc1cn2c(/C=C3/C(=O)Nc4ccccc43)c(-c3ccc(Cl)cc3)nc2s1	12.1 µM	25.5 µM
COc1ccccc1NC(=O)C1=C(C)NC(C)=C(C(=O)Nc2ccccc2OC)C1c1ccc([N+](=O)[O-])cc1		> 100 µM
COC(COC(=O)N1CCN(C=O)CC1)C1=C(N2CC2)C(=O)C(C)=C(N2CC2)C1=O (configuration not stated)		3.6 µM
O=C(Nc1cccc(Cl)c1Cl)c1cccc(NC2=C(Cl)C(=O)N(Cc3ccccc3)C2=O)c1	33.2 µM	> 100 µM
C#C[C@]1(O)CC[C@H]2[C@@H]3CC=C4c5sc(Nc6ccccc6)nc5CC[C@]4(C)[C@H]3CC[C@@]21C	1.64 µM	4.41 µM
COc1cc(NC(C)CCCN)c2nccc(C)c2c1OC (configuration not stated)	19 µM	40.8 µM
COc1cc2c(cc1OC)C13CCN4CC5=CCOC6CC(=O)N2C1C6C5CC43O (configuration not stated)		> 100 µM
O/N=C\c1c(O)ccc2ccccc12		> 100 µM
Cc1c(C2Nc3ccccc3C2C)[nH]c2ccccc12 (configuration not stated)	2.45 µM	22.8 µM
O=C(CCC(=O)Nc1cccc(Cl)c1)CC(=O)c1ccc(Cl)cc1		> 100 µM
O=C(O)c1ccccc1-c1ccccc1C(=O)Nc1ccc2c(c1)Cc1cc(F)ccc1-2		> 100 µM
Cc1[nH]n(-c2cccc(Cl)c2)c(=O)c1/C=C1\C=Nc2ccc(Br)cc21	2.43 µM	13.5 µM
CCN(CC)CCNCC(=O)Oc1ccc(/C=C/C(=O)CC(=O)/C=C/c2ccc(OC(=O)CNCCN(CC)CC)c(OC)c2)cc1OC	3.2 µM	15.8 µM
O=C(O)Cc1c(O)ccc2ccccc12		> 100 µM
CC(=O)O[C@@H]1C[C@]2(C(C)C)O[C@@]1(C)[C@@H]1CCC(C)=C1[C@@H]2OC(=O)/C=C/c1ccccc1	13 µM	> 100 µM
O=C(CSc1nnc(-c2ccccc2NC(=O)C(F)(F)F)c(=O)[nH]1)NC(=O)Nc1ccccc1		> 100 µM
O=C1c2ccn(CCCCNC(CO)(CO)CO)c2C(=O)c2c1c(O)c1ccccc1c2O	0.808 µM	2.68 µM
COc1ccc(C(=O)C(CO)Oc2ccccc2OC)cc1OC (configuration not stated)		> 100 µM

What follows are molecules tested on HCT-116 colon (assay: NCI tumour cell line growth inhibition, 48 h).

SMILES	GI50	TGI
Nc1c(C(=O)N/N=C/c2ccc(-c3ccc(Cl)cc3)o2)cnn1-c1ccnc2c(C(F)(F)F)cccc12	> 100000 nM	> 100 µM
CCCCCc1c(C)[nH]c(/C=C2\N=C(c3ccc[nH]3)C=C2CC)c1C	< 10 nM	0.0255 µM
CC(C)(C)C(=O)/C=C/c1ccc(Oc2ccccc2)cc1		34.7 µM
Cc1c[n+](Cc2ccc3ccccc3c2)cn1Cc1ccc2ccccc2c1	1390 nM	2.7 µM
COc1cc(/C=C2\C(=O)Nc3ccc(F)cc32)cc(OC)c1OC	21200 nM	> 100 µM
COc1ccccc1NC(=O)C1=C(C)NC(C)=C(C(=O)Nc2ccccc2OC)C1c1ccc([N+](=O)[O-])cc1		> 100 µM
COC(COC(=O)N1CCN(C=O)CC1)C1=C(N2CC2)C(=O)C(C)=C(N2CC2)C1=O (configuration not stated)		1.55 µM
O=C(Nc1cccc(Cl)c1Cl)c1cccc(NC2=C(Cl)C(=O)N(Cc3ccccc3)C2=O)c1	22100 nM	> 100 µM
COc1cc(NC(C)CCCN)c2nccc(C)c2c1OC (configuration not stated)	5000 nM	18.7 µM
CSC1(CC(=O)N(C)C)C(=O)Nc2ccccc21 (configuration not stated)		> 100 µM
COc1cc2c(cc1OC)C13CCN4CC5=CCOC6CC(=O)N2C1C6C5CC43O (configuration not stated)		> 100 µM
O/N=C\c1c(O)ccc2ccccc12		> 100 µM
Cc1n(Cc2ccc3ccccc3c2)cc[n+]1Cc1ccc2ccccc2c1	1070 nM	4.4 µM
Cc1c(C2Nc3ccccc3C2C)[nH]c2ccccc12 (configuration not stated)	830 nM	23.5 µM
O=C(CCC(=O)Nc1cccc(Cl)c1)CC(=O)c1ccc(Cl)cc1		> 100 µM
O=C(O)c1ccccc1-c1ccccc1C(=O)Nc1ccc2c(c1)Cc1cc(F)ccc1-2		33 µM
Cc1[nH]n(-c2cccc(Cl)c2)c(=O)c1/C=C1\C=Nc2ccc(Br)cc21	2650 nM	7.03 µM
CC(=O)Oc1ccccc1C(=O)N=C1[Se]CCCN1C(=O)c1ccccc1OC(C)=O	2100 nM	5.95 µM
CCN(CC)CCNCC(=O)Oc1ccc(/C=C/C(=O)CC(=O)/C=C/c2ccc(OC(=O)CNCCN(CC)CC)c(OC)c2)cc1OC	2810 nM	12.3 µM
O=C(O)Cc1c(O)ccc2ccccc12		> 100 µM
CC(=O)O[C@@H]1C[C@]2(C(C)C)O[C@@]1(C)[C@@H]1CCC(C)=C1[C@@H]2OC(=O)/C=C/c1ccccc1	16400 nM	> 100 µM
O=C(CSc1nnc(-c2ccccc2NC(=O)C(F)(F)F)c(=O)[nH]1)NC(=O)Nc1ccccc1		> 100 µM
O=C1c2ccn(CCCCNC(CO)(CO)CO)c2C(=O)c2c1c(O)c1ccccc1c2O	436 nM	0.857 µM
COc1ccc(C(=O)C(CO)Oc2ccccc2OC)cc1OC (configuration not stated)		> 100 µM

These molecules were tested on HCT-15 colon (assay: NCI tumour cell line growth inhibition, 48 h).

SMILES	GI50	TGI
Nc1c(C(=O)N/N=C/c2ccc(-c3ccc(Cl)cc3)o2)cnn1-c1ccnc2c(C(F)(F)F)cccc12	> 100 µM	> 100 µM
CCCCCc1c(C)[nH]c(/C=C2\N=C(c3ccc[nH]3)C=C2CC)c1C	< 0.01 µM	0.125 µM
Cc1c[n+](Cc2ccc3ccccc3c2)cn1Cc1ccc2ccccc2c1	10.3 µM	24.2 µM
COc1cc(/C=C2\C(=O)Nc3ccc(F)cc32)cc(OC)c1OC	14.9 µM	> 100 µM
Cc1cn2c(/C=C3/C(=O)Nc4ccccc43)c(-c3ccc(Cl)cc3)nc2s1	6.93 µM	13.4 µM
COc1ccccc1NC(=O)C1=C(C)NC(C)=C(C(=O)Nc2ccccc2OC)C1c1ccc([N+](=O)[O-])cc1		> 100 µM
COC(COC(=O)N1CCN(C=O)CC1)C1=C(N2CC2)C(=O)C(C)=C(N2CC2)C1=O (configuration not stated)		8.1 µM
